Our source for the IC50 values is patent US20070116784A1, “Imatinib combinations for head and neck cancers” (priority 2003, published 2007).

SMILES strings stand for the structures. Where two headings read alike, the source gives them in different places.

One assay has as its system HN3 ACC primary culture. Briefly: cells. The class given is cell-based, human.
For the next assay, the system named is DOK. Briefly: Growth inhibition assay (SRB). The assay is classed as cell-based.
For a further assay, the system named is HN1 ACC primary culture. Briefly: cells. The assay is classed as cell-based, human.
For the next assay, the system named is HN5 ACC primary culture. The experiment in a line: Growth inhibition assay (SRB). The assay is classed as cell-based, human.
The next assay deals with Cal27. Briefly: Growth inhibition assay (SRB). The class given is cell-based, human.
For a further assay, the system named is FaDu. The experiment in a line: Growth inhibition assay (SRB). The class given is cell-based, human.

Experimental for Cal27: (§1) Cell lines are sub-cultured weekly and routinely screened for mycoplasma contamination.
(§2) The cells are fixed with 100 μl of pre-chilled 10% trichloroacetic acid after removal of the medium. The plates are then chilled at 4° C. for 1 h. Following this, the plates are washed twice with water and stained with 50 μl of 0.4% SRB in 1% acetic acid for 10 min at room temperature. The unbound dye is removed and the plates are washed in 1% acetic acid to further remove unbound dye. […] Growth inhibition curves are plotted and IC50 values determined.
Experimental for DOK: as §1, §2
Experimental for FaDu: as §1, §2

Usually IC50 stands for the point on the concentration scale where inhibition reaches its midpoint. Turning to `COc1cccc2c1C(=O)c1c(O)c3c(c(O)c1C2=O)C[C@@](O)(C(=O)CO)C[C@@H]3O[C@H]1C[C@H](N)[C@H](O)[C@H](C)O1` [Adr], the half-maximal inhibitory concentration (IC50) with HN3 ACC primary culture (read-out: IC50) was 0.06 µM; in the assay on DOK (DOK, 5-7 days, read-out: IC50) it was 0.02 µM.
As to `COc1ccc(/C=C\c2cc(OC)c(OC)c(OC)c2)cc1O` [Ca4, combrestatin], the IC50 is greater than 0.02 µM with HN1 ACC primary culture (read-out: IC50); 0.00306 µM in the assay with HN5 ACC primary culture (read-out: IC50); 0.00146 µM in the assay on Cal27; 0.00332 µM in the assay on DOK (read-out: IC50); 0.00369 µM with FaDu.
For the compound `N.N.[Cl][Pt][Cl]` [Cisp, cisplatin], the half-maximal inhibitory concentration (IC50) amounted to 5 µM with HN1 ACC primary culture (read-out: IC50); 2.8 µM with HN3 ACC primary culture (read-out: IC50); 3.7 µM in the assay with DOK (DOK, 5-7 days, read-out: IC50).
On to `O=c1[nH]cc(F)c(=O)[nH]1` [Compound 5FU, 5 fluorouracil], for which the IC50 in the assay with HN1 ACC primary culture (Homo sapiens) is 4.8 µM; in the assay with DOK (DOK, 5-7 days, read-out: IC50), 22 µM.
In the case of `Nc1ccn([C@@H]2O[C@H](CO)[C@@H](O)C2(F)F)c(=O)n1` [Gem, gemcitabine], the IC50 in the assay on HN1 ACC primary culture (Homo sapiens) stood at 0.00195 µM; in the assay on DOK (DOK, 5-7 days, read-out: IC50), 0.00706 µM.
Consider `CO[C@@]12[C@H](COC(N)=O)C3=C(C(=O)C(C)=C(N)C3=O)N1C[C@@H]1N[C@@H]12` [MMC, mitomycin C], for which the IC50 in the assay with HN1 ACC primary culture (read-out: IC50) worked out at 1.75 µM; in the assay on HN3 ACC primary culture (read-out: IC50) it was 1.16 µM; in the assay with DOK (DOK, 5-7 days, read-out: IC50), 0.06 µM.
In the case of `N[C@@H](Cc1ccc(N(CCCl)CCCl)cc1)C(=O)O` [Mel, melphalan], the IC50 is 66.6 µM in the assay with HN1 ACC primary culture (Homo sapiens); 7.3 µM with HN5 ACC primary culture (Homo sapiens); 27.5 µM with HN3 ACC primary culture (Homo sapiens); 111 µM in the assay with DOK (DOK, 5-7 days, read-out: IC50).
For the compound `CC1=C(N2CC2)C(=O)C(CO)=C(N2CC2)C1=O` [RH1], the IC50 in the assay on HN1 ACC primary culture (read-out: IC50) was 0.00711 µM; with HN5 ACC primary culture (read-out: IC50) it was 0.00087 µM; in the assay on Cal27 it was 0.00011 µM; with HN3 ACC primary culture (read-out: IC50), 0.00086 µM; with DOK (read-out: IC50) it was 0.00033 µM; in the assay with FaDu, 0.00134 µM.
`CC(=O)O[C@H]1C(=O)[C@@]2(C)[C@H]([C@H](OC(=O)c3ccccc3)[C@]3(O)C[C@H](OC(=O)[C@H](O)[C@@H](NC(=O)c4ccccc4)c4ccccc4)C(C)=C1C3(C)C)[C@]1(OC(C)=O)CO[C@@H]1C[C@@H]2O` [Taxol, 5(beta),20-Epoxy-1,2(alpha),4,7(beta), 10(beta), b 13(alpha)-hexahydroxytax-11-en-9-one4,10-diacetate 2-benzoate 13-ester with (2R ,3S )-N-benzoyl-3-phenylisoserine]: the IC50 in the assay with HN1 ACC primary culture (Homo sapiens) stood at 6.1 ng/mL; in the assay with HN3 ACC primary culture (Homo sapiens), 6.1 ng/mL; in the assay with DOK (DOK, 5-7 days, read-out: IC50), 2.7 ng/mL.
On to `CC[C@]1(O)C[C@@H]2CN(CCc3c([nH]c4ccccc34)[C@@](C(=O)OC)(c3cc4c(cc3OC)N(C)[C@H]3[C@@](O)(C(=O)OC)[C@H](OC(C)=O)[C@]5(CC)C=CCN6CC[C@]43[C@@H]65)C2)C1` [VBL, vinblastin], for which the IC50 with HN1 ACC primary culture was determined as 1.3 ng/mL; in the assay on HN3 ACC primary culture, 0.9 ng/mL; with DOK (DOK, 5-7 days), 0.3 ng/mL.
